target: T1, Human immunodeficiency virus type 1 reverse transcriptase (Human immunodeficiency virus 1, UniProt Q72547); assay: Inhibition of HIV-1 reverse transcriptase at 37 degree Centigrade

| Structure (SMILES) | EC50 [µM] |
| --- | --- |
| Cc1c(Sc2ccccc2)n(C)c(=O)[nH]c1=O | > 150 |
| Cc1c(Cc2ccccc2)n(COCCO)c(=O)[nH]c1=O | 23 |
| Cc1c(Sc2ccccc2)[nH]c(=O)[nH]c1=O | > 250 |

Next, values leading:

| EC50 [µM] | Structure (SMILES) |
| --- | --- |
| 85 | Cc1c(Oc2ccccc2)n(COCCO)c(=O)[nH]c1=O |
| 0.004 | CCOCn1c(Cc2ccccc2)c(C(C)C)c(=O)[nH]c1=O [EMIVIRINE] |
| 7 | Cc1c(Sc2ccccc2)n(COCCO)c(=O)[nH]c1=O [HEPT] |

target: T1, Human immunodeficiency virus type 1 reverse transcriptase; assay: Inhibition of HIV-1 reverse transcriptase at 25 degree Centigrade

| IC50 [µM] | Structure (SMILES) |
| --- | --- |
| 0.11 | CCc1ccnc2c1N(C)C(=O)c1cccnc1N2CC |

From ChEMBL document CHEMBL1134603 (J Med Chem, 2001)
